Literature values in patent publication US6013628A, “Method for treating conditions of the eye using polypeptides” (Regents of the University of Minnesota, priority 1995, dated 2000).

Tested on: retinal pigmented epithelial cells
Conditions: Avery et al. 1986; cited from earlier work

Substance: Arg-Gly-Asp-Ser (RGDS)
- Adhesion of retinal pigmented epithelial cells to fibronectin, type I collagen, type II collagen and lens capsule basement membrane: inhibit the adhesion
